Assay results reported in US6737383B1, “Herbicidal oxadiazolidines” (priority 1999, dated 2004).

Experiments:
[1] = tested on: purple nutsedge; test: Test B pre/postemergence purple nutsedge; assay type: in vivo, Cyperus rotundus
Procedure, shortened: (§1)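 Herbicidal effect was estimated by eye on a ten-point control scale after plants spent twelve to sixteen days in a greenhouse following soil or foliar treatment. Foliar sprays targeted plants at one to four leaves; all doses were formulated in a non-phytotoxic solvent with surfactant.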

[2] = tested on: corn; test: Test B pre/postemergence corn; assay type: in vivo, Zea mays
Procedure, shortened: as §1

[3] = tested on: bedstraw; test: Test B pre/postemergence bedstraw; assay type: in vivo, Galium aparine
Procedure, shortened: as §1

[4] = tested on: rape; test: Test B pre/postemergence rape; assay type: in vivo, Brassica napus
Procedure, shortened: as §1

[5] = tested on: pigweed; test: Test B pre/postemergence pigweed; assay type: in vivo, Amaranthus retroflexus
Procedure, shortened: as §1

[6] = tested on: morningglory; test: Test B pre/postemergence morningglory; assay type: in vivo, Ipomoea hederacea
Procedure, shortened: as §1

[7] = tested on: crabgrass; test: Test B pre/postemergence crabgrass; assay type: in vivo, Digitaria sanguinalis
Procedure, shortened: as §1

[8] = tested on: sugar beet; test: Test B pre/postemergence sugar beet; assay type: in vivo, Beta vulgaris
Procedure, shortened: as §1

[9] = tested on: blackgrass; test: Test B pre/postemergence blackgrass; assay type: in vivo, Alopecurus myosuroides
Procedure, shortened: as §1

[10] = tested on: surinam grass; test: Test B pre/postemergence surinam grass; assay type: in vivo, Brachiaria decumbens
Procedure, shortened: as §1

[11] = tested on: soybean; test: Test B pre/postemergence soybean; assay type: in vivo, Glycine max
Procedure, shortened: as §1

[12] = tested on: wheat; test: Test B pre/postemergence wheat; assay type: in vivo, Triticum aestivum
Procedure, shortened: as §1

[13] = tested on: velvetleaf; test: Test B pre/postemergence velvetleaf; assay type: in vivo, Abutilon theophrasti
Procedure, shortened: as §1

[14] = tested on: wild oat; test: Test B pre/postemergence wild oat; assay type: in vivo, Avena fatua
Procedure, shortened: as §1

[15] = tested on: cocklebur; test: Test B pre/postemergence cocklebur; assay type: in vivo, Xanthium strumarium
Procedure, shortened: as §1

[16] = tested on: giant foxtail; test: Test B pre/postemergence giant foxtail; assay type: in vivo, Setaria faberii
Procedure, shortened: as §1

[17] = Postemergence, Rate 62 g/ha, scale 0 to 10, 0 is no effect, 10 is complete control
[18] = Postemergence, Rate 125 g/ha, scale of 0 to 10 where 0 is no effect and 10 is complete control
[19] = Preemergence, Rate 250 g/ha, scale 0 (no effect) to 10 (complete control)
[20] = Rate 62 g/ha, Preemergence, scale 0 to 10
[21] = Rate 250 g/ha, Postemergence, scale 0 to 10, 0 is no effect, 10 is complete control
[22] = Rate 500 g/ha, Postemergence, scale 0 to 10, 0 is no effect, 10 is complete control
[23] = Rate 500 g/ha, Preemergence, scale 0 to 10 (0 no effect, 10 complete control)
[24] = Preemergence, Rate 125 g/ha, scale of 0 to 10 where 0 is no effect and 10 is complete control

Structure (SMILES): CC(C)N(C(=O)n1oc(=O)n(CC(F)F)c1=O)c1ccc(Cl)cc1 [Compound 745]
- Plant response rating, Nutsedge [1, 17]: 0
- Nutsedge plant response rating [1, 18]: 0
- Nutsedge plant response rating [1, 19]: 0
- Nutsedge plant response rating [1, 20]: 0
- Nutsedge plant response rating [1, 21]: 0
- Nutsedge plant response rating [1, 22]: 0
- Nutsedge plant response rating [1, 23]: 5
- Plant response rating, Corn [2, 17]: 0
- Corn plant response rating [2, 18]: 0
- Plant response rating, Corn [2, 24]: 0
- Corn plant response rating [2, 19]: 2
- Corn plant response rating [2, 20]: 0
- Corn plant response rating [2, 21]: 0
- Corn plant response rating [2, 22]: 0
- Corn plant response rating [2, 23]: 2
- Bedstraw plant response rating [3, 19]: 5
- Bedstraw plant response rating [3, 20]: 0
- Bedstraw plant response rating [3, 21]: 7
- Bedstraw plant response rating [3, 22]: 9
- Bedstraw plant response rating [3, 23]: 5
- Plant response rating, Rape [4, 17]: 0
- Rape plant response rating [4, 18]: 0
- Plant response rating, Rape [4, 24]: 5
- Rape plant response rating [4, 19]: 7
- Rape plant response rating [4, 20]: 0
- Rape plant response rating [4, 21]: 5
- Rape plant response rating [4, 22]: 7
- Rape plant response rating [4, 23]: 7
- Plant response rating, Redroot pigweed [5, 17]: 2
- Redroot pigweed plant response rating [5, 18]: 2
- Plant response rating, Redroot pigweed [5, 24]: 9
- Redroot pigweed plant response rating [5, 19]: 10
- Redroot pigweed plant response rating [5, 20]: 7
- Redroot pigweed plant response rating [5, 21]: 5
- Redroot pigweed plant response rating [5, 22]: 6
- Redroot pigweed plant response rating [5, 23]: 10
- Plant response rating, Morningglory [6, 17]: 3
- Morningglory plant response rating [6, 18]: 3
- Plant response rating, Morningglory [6, 24]: 0
- Morningglory plant response rating [6, 19]: 0
- Morningglory plant response rating [6, 20]: 0
- Morningglory plant response rating [6, 21]: 3
- Morningglory plant response rating [6, 22]: 8
- Morningglory plant response rating [6, 23]: 3
- Plant response rating, Crabgrass [7, 17]: 4
- Crabgrass plant response rating [7, 18]: 4
- Plant response rating, Crabgrass [7, 24]: 10
- Crabgrass plant response rating [7, 19]: 10
- Crabgrass plant response rating [7, 20]: 7
- Crabgrass plant response rating [7, 21]: 9
- Crabgrass plant response rating [7, 22]: 9
- Crabgrass plant response rating [7, 23]: 10
- Plant response rating, Sugarbeets [8, 17]: 2
- Sugarbeets plant response rating [8, 18]: 2
- Plant response rating, Sugarbeets [8, 24]: 4
- Sugarbeets plant response rating [8, 19]: 4
- Sugarbeets plant response rating [8, 20]: 0
- Sugarbeets plant response rating [8, 21]: 4
- Sugarbeets plant response rating [8, 22]: 4
- Sugarbeets plant response rating [8, 23]: 4
- Plant response rating, Blackgrass [9, 17]: 3
- Blackgrass plant response rating [9, 18]: 3
- Plant response rating, Blackgrass [9, 24]: 6
- Blackgrass plant response rating [9, 19]: 9
- Blackgrass plant response rating [9, 20]: 3
- Blackgrass plant response rating [9, 21]: 8
- Blackgrass plant response rating [9, 22]: 9
- Blackgrass plant response rating [9, 23]: 9
- Plant response rating, B. signalgrass [10, 17]: 0
- B. signalgrass plant response rating [10, 18]: 0
- B. signalgrass plant response rating ([10]; Preemergence, Rate 62 g/ha, scale of 0 to 10 where 0 is no effect and 10 is complete control): 8
- Plant response rating, B. signalgrass [10, 24]: 9
- B. signalgrass plant response rating [10, 19]: 10
- B. signalgrass plant response rating [10, 21]: 6
- B. signalgrass plant response rating [10, 22]: 6
- B. signalgrass plant response rating [10, 23]: 10
- Plant response rating, Soybean [11, 17]: 3
- Soybean plant response rating [11, 18]: 3
- Plant response rating, Soybean [11, 24]: 0
- Soybean plant response rating [11, 19]: 0
- Soybean plant response rating [11, 20]: 0
- Soybean plant response rating [11, 21]: 5
- Soybean plant response rating [11, 22]: 5
- Soybean plant response rating [11, 23]: 0
- Plant response rating, Wheat [12, 17]: 0
- Wheat plant response rating [12, 18]: 0
- Plant response rating, Wheat [12, 24]: 0
- Wheat plant response rating [12, 19]: 0
- Wheat plant response rating [12, 20]: 0
- Wheat plant response rating [12, 21]: 0
- Wheat plant response rating [12, 22]: 3
- Wheat plant response rating [12, 23]: 0
- Plant response rating, Velvetleaf [13, 17]: 0
- Velvetleaf plant response rating [13, 18]: 0
- Plant response rating, Velvetleaf [13, 24]: 0
- Velvetleaf plant response rating [13, 19]: 4
- Velvetleaf plant response rating [13, 20]: 0
- Velvetleaf plant response rating [13, 21]: 3
- Velvetleaf plant response rating [13, 22]: 7
- Velvetleaf plant response rating [13, 23]: 6
- Plant response rating, Wild oats [14, 17]: 0
- Wild oats plant response rating [14, 18]: 0
- Plant response rating, Wild oats [14, 24]: 6
- Wild oats plant response rating [14, 19]: 8
- Wild oats plant response rating [14, 20]: 2
- Wild oats plant response rating [14, 21]: 4
- Wild oats plant response rating [14, 22]: 4
- Wild oats plant response rating [14, 23]: 8
- Plant response rating, Cocklebur [15, 17]: 0
- Cocklebur plant response rating [15, 18]: 0
- Plant response rating, Cocklebur [15, 24]: 0
- Cocklebur plant response rating [15, 19]: 0
- Cocklebur plant response rating [15, 20]: 0
- Cocklebur plant response rating [15, 21]: 0
- Cocklebur plant response rating [15, 22]: 4
- Cocklebur plant response rating [15, 23]: 0
- Plant response rating, Giant foxtail [16, 17]: 2
- Giant foxtail plant response rating [16, 18]: 2
- Plant response rating, Giant foxtail [16, 24]: 10
- Giant foxtail plant response rating [16, 19]: 10
- Giant foxtail plant response rating [16, 20]: 10
- Giant foxtail plant response rating [16, 21]: 9
- Giant foxtail plant response rating [16, 22]: 9
- Giant foxtail plant response rating [16, 23]: 10
